These results are taken from US8034812B2, “Imidazopyridazine derivative having kinase inhibitory activity and pharmaceutical agent thereof” (Takeda Pharmaceutical Company Limited, priority 2006, dated 2011).

Structures are written as SMILES. Where only a bound is given, the exact number is not on record here.

Experiment [1] has as its target T1, VEGFR2 intracellular domain protein (Homo sapiens, UniProt P35968).
T1 construct: made in house; host or cells: SF-21 insect cells, recombinant baculovirus BAC-VEGFR2
The experiment can be described thus: Determination of vascular endothelial growth factor receptor 2 (VEGFR2) kinase inhibitory activity (AlphaScreen). It is filed as biochemical. To be noted: read-out: VEGFR2 kinase inhibitory rate. As for the experimental part:
Human vascular endothelial growth factor receptor 2 (hereinafter to be referred to as VEGFR2) gene was cloned by PCR using cDNA Libraries Human Placenta (Clontech) as a template. The primer used for PCR was prepared from base sequence (Genbank Accession AF035121) information of VEGFR2 gene by adding a base sequence encoding flag peptide and a recognition sequence of the restriction enzyme to a base sequence (2671-4374 of Genbank Accession AF035121) encoding the VEGFR2 intracellular domain region, so that the protein contains an N-terminal Flag tag. The primer base sequence is shown below.
SF-21 cells were sown at 1×10^6 cells/mL to Sf-900II SFM medium (1 L, Invitrogen) containing 10% fetal bovine serum (trace), 50 mg/L Gentamicin (Invitrogen) and 0.1% Pluronic F-68 (Invitrogen), and shaking culture was performed using a 2 L volume Erlenmeyer flask at 27° C., 100 rpm. After culturing for 24 hrs, recombinant baculovirus BAC-VEGFR2 (13.4 mL) was added to the mixture, and the mixture was further cultured for 3 days. The culture medium was centrifuged at 2,000 rpm for 5 min to give virus-infected cells. The infected cells were washed with a phosphate buffered saline (Invitrogen), centrifuged under the same conditions, and the cells were preserved at −80° C. The cryopreserved cells were thawed in ice, suspended in buffer A (50 mM Tris buffer (30 mL, pH 7.4) containing 20% glycerol, 0.15 M NaCl) supplemented with Complete Protease Inhibitor (Boehringer), and ruptured 3 times with a Polytron homogenizer (Kinematica) at 20,000 rpm for 30 sec. The ruptured medium was clarified by centrifugation at 40,000 rpm for 30 min and filtered with a 0.45 μm filter. The filtrate was passed through a column packed with Anti-FLAG M2 Affinity Gel (4 mL, Sigma) at a flow rate of about 0.5 mL/min. The column was washed with buffer A, and eluted with buffer A containing 100 μg/mL of FLAG peptide. The eluate was concentrated with Vivaspin 20 (Vivascience) having a molecular weight cut off of 30K. The buffer of this concentrate was exchanged using NAP™ 25 column (Amersham Bioscience) equilibrated with buffer A. The fractions containing intracellular domain protein of VEGFR2 were collected, glycerol was added to the final concentration of 50% and cryopreserved at −80° C.
A test compound dissolved in dimethyl sulfoxide (DMSO) was diluted with a buffer (50 mM Tris-HCl (pH 7.5), 5 mM MgCl2, 5 mM MnCl2, 2 mM dithiothreitol, 0.01% Tween-20). To this compound solution (5 μL) was added a buffer (10 μL) containing 50 ng/mL of VEGFR2 intracellular domain protein and 250 ng/mL of biotin labeled polypeptide biotinyl-poly-Glu:Tyr (4:1) (CIS bio International). To the obtained mixture was added a buffer (10 μL) containing ATP (25 μM), the mixture was allowed to react at 25° C. for 5 min and the reaction was quenched with 25 μL of a stop solution (100 mM EDTA disodium salt, 62.5 mM HEPES buffer (pH 7.4), 250 mM NaCl, 0.1% bovine serum albumin, 10 μg/mL AlphaScreen assay streptavidin donor beads (Streptavidin Donor beads: PerkinElmer), 10 μg/mL AlphaScreen assay anti-phosphotyrosine recognition antibody PY-100 binding acceptor beads (Anti-phosphotyrosine (P-Tyr-100) Acceptor beads: PerkinElmer)). The reaction solution was allowed to stand at 25° C. for 16 hrs, and the wells were counted using a plate reader Fusion™ (PerkinElmer). The kinase inhibitory rate (%) of the test compound was calculated by the following formula: Inhibitory rate(%)=(1−(count of test compound−blank)÷(control−blank))×100

The test system of experiment [2] is Human umbilical vein-derived vascular endothelial cells (HUVEC). The experiment can be described thus: Vascular endothelial cell growth inhibitory test (VEGF-stimulated HUVEC, XTT). To be noted: 120 h, 5 days of culture. Format: cell-based. As for the experimental part: To be specific, HUVEC was suspended in a vascular endothelial cell medium containing the aforementioned 5% bovine fetal serum and plated on a 96 well flat bottom plate by 50 μL (3000 cells) each well. After culture overnight, various concentrations of the test substance and 120 ng/mL of vascular endothelial growth factor (VEGF) were dissolved in a vascular endothelial cell medium containing 5% bovine fetal serum and added to each well by 50 μL. After 5 days of culture, a XTT reagent (Wako Pure Chemical Industries, Ltd.) was added to each well by 10 μL, and the mixture was reacted in an incubator at 37° C., 5% carbon dioxide for 2-3 hr. The absorbance at 450 nm was measured by a microtiter plate reader and the cell growth inhibitory activity was determined.

The target of experiment [3] is T2, PDGFRα intracellular domain protein (Homo sapiens, UniProt P16234).
T2 construct: 125 ng/ml of PDGFRα intracellular domain protein (UPSTATE); purchased UPSTATE
The experiment can be described thus: Determination of platelet-derived growth factor receptor α (PDGFRα) kinase inhibitory activity (AlphaScreen). Format: biochemical. As for the experimental part:
(§1) A test compound dissolved in dimethyl sulfoxide (DMSO) was diluted with a buffer (50 mM Tris-HCl (pH 7.5), 5 mM MgCl2, 5 mM MnCl2, 2 mM dithiothreitol, 0.01% Tween-20). To this compound solution (5 μL) was added a buffer (10 μL) containing 125 ng/ml of PDGFRα intracellular domain protein (UPSTATE) and 250 ng/mL of biotin labeled polypeptide biotinyl-poly-Glu:Tyr (4:1) (CIS bio International). At 5 min after mixing kinase enzyme and the compound and biotin labeled polypeptide, to the obtained mixture was added a buffer (10 μL) containing ATP (25 μM), the mixture was allowed to react at 25° C. for 30 min and the reaction was quenched with 25 μL of a stop solution (100 mM EDTA disodium salt, 62.5 mM HEPES buffer (pH 7.4), 250 mM NaCl, 0.1% bovine serum albumin, 10 μg/mL AlphaScreen assay streptavidin donor beads (Streptavidin Donor beads: PerkinElmer), 10 μg/mL AlphaScreen assay anti-phosphotyrosine recognition antibody PT-66 binding acceptor beads (Anti-phosphotyrosine (P-Tyr-66) Acceptor beads: PerkinElmer)). The reaction solution was allowed to stand at 25° C. for 16 hrs, and the wells were counted using a plate reader Fusion™ (PerkinElmer). The kinase inhibitory rate (%) of the test compound was calculated by the following formula: Inhibitory rate(%)=(1−(count of test compound−blank)÷(control−blank))×100
(§2) The count of the solution reacted without addition of the compound was used as a “control”, and the count of the solution without the compound and ATP was used as a “blank”.

The target in experiment [4] is T3, PDGFRβ intracellular domain protein (Homo sapiens, UniProt P09619).
T3 construct: 125 ng/ml of PDGFRβ intracellular domain protein (UPSTATE); purchased UPSTATE
The experiment can be described thus: Determination of platelet-derived growth factor receptor β (PDGFRβ) kinase inhibitory activity (AlphaScreen). Format: biochemical. As for the experimental part: as §1, with “of PDGFRβ” for “of PDGFRα”, “Donor Beads:” for “Donor beads:”, “test compound[…])÷(control−blank))×100” for “test compound−blank)÷(control−blank))×100”
as §2

T3 sequence (P09619 554-1106 limits assumed): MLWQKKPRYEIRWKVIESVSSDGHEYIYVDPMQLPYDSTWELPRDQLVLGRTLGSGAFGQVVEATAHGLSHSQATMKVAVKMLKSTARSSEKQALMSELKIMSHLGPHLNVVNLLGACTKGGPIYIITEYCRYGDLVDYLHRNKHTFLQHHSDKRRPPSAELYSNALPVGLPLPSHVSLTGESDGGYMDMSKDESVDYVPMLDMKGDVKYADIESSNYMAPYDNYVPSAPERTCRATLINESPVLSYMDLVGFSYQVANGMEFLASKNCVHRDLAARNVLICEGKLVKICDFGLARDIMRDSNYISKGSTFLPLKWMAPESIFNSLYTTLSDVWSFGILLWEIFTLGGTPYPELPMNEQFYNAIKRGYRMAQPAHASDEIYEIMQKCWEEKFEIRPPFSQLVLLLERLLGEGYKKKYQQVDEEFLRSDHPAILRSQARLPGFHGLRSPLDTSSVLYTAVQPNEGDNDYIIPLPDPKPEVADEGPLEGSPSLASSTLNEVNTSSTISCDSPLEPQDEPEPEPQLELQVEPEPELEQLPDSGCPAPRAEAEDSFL
T1 sequence (P35968 786-1356 limits assumed): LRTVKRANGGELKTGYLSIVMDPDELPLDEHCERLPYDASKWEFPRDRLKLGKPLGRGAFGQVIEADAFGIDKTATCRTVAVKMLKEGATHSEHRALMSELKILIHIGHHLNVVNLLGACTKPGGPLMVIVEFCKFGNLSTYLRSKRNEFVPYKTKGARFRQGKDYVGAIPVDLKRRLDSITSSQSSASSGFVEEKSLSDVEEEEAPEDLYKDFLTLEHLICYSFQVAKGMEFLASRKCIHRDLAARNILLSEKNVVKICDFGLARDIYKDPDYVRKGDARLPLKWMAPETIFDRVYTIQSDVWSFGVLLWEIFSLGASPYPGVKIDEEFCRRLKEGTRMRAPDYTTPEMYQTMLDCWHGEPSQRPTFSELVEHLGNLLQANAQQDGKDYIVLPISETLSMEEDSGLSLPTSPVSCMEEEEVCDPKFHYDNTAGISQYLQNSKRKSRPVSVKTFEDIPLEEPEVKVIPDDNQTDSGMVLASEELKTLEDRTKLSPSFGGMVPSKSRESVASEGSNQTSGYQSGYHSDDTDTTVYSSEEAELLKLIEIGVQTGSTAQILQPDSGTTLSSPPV
T2 sequence (P16234 550-1089 limits assumed): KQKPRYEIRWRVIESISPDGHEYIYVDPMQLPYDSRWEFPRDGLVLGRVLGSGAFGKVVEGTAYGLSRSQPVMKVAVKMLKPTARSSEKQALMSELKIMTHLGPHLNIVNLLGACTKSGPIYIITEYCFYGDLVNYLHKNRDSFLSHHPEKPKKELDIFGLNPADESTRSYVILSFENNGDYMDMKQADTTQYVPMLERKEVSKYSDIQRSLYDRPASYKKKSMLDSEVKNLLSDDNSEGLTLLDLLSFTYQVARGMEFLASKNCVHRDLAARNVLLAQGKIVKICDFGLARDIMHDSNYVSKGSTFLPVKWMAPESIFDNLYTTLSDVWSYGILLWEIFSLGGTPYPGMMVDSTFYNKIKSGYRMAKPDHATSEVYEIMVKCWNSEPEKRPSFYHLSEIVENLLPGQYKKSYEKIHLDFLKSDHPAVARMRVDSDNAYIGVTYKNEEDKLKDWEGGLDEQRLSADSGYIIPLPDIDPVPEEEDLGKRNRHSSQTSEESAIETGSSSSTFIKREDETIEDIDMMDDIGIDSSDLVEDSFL

Turning to `O=C(Nc1cn2nc(Oc3ccc4cc[nH]c4c3)ccc2n1)C1CC1` [Example 95, N-[6-(1H-indol-6-yloxy)imidazo[1,2-b]pyridazin-2-yl]cyclopropanecarboxamide], the inhibition at 1 µM in experiment [1] was at least 90%. In addition, the concentration for half-maximal inhibition (IC50) in experiment [2] and in experiment [3] was at most 500 nM throughout.

Regarding `CCNC(=O)Nc1cccc(Oc2ccc3nc(NC(=O)C4CC4)cn3n2)c1` [Example 103, N-[6-(3-{[(ethylamino)carbonyl]amino}phenoxy)imidazo[1,2-b]pyridazin-2-yl]cyclopropanecarboxamide], the inhibition at 1 µM in experiment [1] was at least 90%. In addition, the half-inhibitory concentration (IC50) in experiment [2] and in experiment [4] was at most 500 nM throughout.

Consider `Cc1ccc(Oc2ccc3nc(NC(=O)C4CC4)cn3n2)cc1N` [Example 108, N-[6-(3-amino-4-methylphenoxy)imidazo[1,2-b]pyridazin-2-yl]cyclopropanecarboxamide], for which the inhibition at 1 µM in experiment [1] is at least 90%. The IC50 in experiment [2] is at most 500 nM.

Take `Cc1cc(C(=O)Nc2cc(Oc3ccc4nc(NC(=O)C5CC5)cn4n3)ccc2C)n(C)n1` [Example 111, N-[5-({2-[(cyclopropylcarbonyl)amino]imidazo[1,2-b]pyridazin-6-yl}oxy)-2-methylphenyl]-1,3-dimethyl-1H-pyrazole-5-carboxamide]: the inhibition at 1 µM in experiment [1] was at least 90%. Besides, in experiment [2], the IC50 was at most 500 nM.

As to `Cc1nc(C)c(C(=O)Nc2cccc(Oc3ccc4nc(NC(=O)C5CC5)cn4n3)c2)s1` [Example 114, N-[3-({2-[(cyclopropylcarbonyl)amino]imidazo[1,2-b]pyridazin-6-yl}oxy)phenyl]-2,4-dimethyl-1,3-thiazole-5-carboxamide], in experiment [1], the inhibition at 1 µM is at least 90%. Also, the half-maximal inhibitory concentration (IC50) in experiment [2] and in experiment [4] was at most 500 nM in each case.

Regarding `Cc1nc(C(=O)Nc2cccc(Oc3ccc4nc(NC(=O)C5CC5)cn4n3)c2)c(C)o1` [Example 117, N-[3-({2-[(cyclopropylcarbonyl)amino]imidazo[1,2-b]pyridazin-6-yl}oxy)phenyl]-2,5-dimethyl-1,3-oxazole-4-carboxamide], the inhibition at 1 µM in experiment [1] was at least 90%. In addition, the 50% inhibitory concentration (IC50) in experiment [2] and in experiment [4] was at most 500 nM in each case.

`COCC(=O)Nc1cn2nc(Oc3cccc(NC(=O)c4cc(C)nn4C)c3)ccc2n1` [Example 127, N-[3-({2-[(methoxyacetyl)amino]imidazo[1,2-b]pyridazin-6-yl}oxy)phenyl]-1,3-dimethyl-1H-pyrazole-5-carboxamide]: the inhibition at 1 µM in experiment [1] was at least 90%. The concentration for half-maximal inhibition (IC50) in experiment [2] and in experiment [4] was at most 500 nM each time.

For `Cc1cc(C(=O)Nc2cc(Oc3ccc4nc(NC(=O)C5CC5)cn4n3)ccc2F)n(C)n1` [Example 148, N-[5-({2-[(cyclopropylcarbonyl)amino]imidazo[1,2-b]pyridazin-6-yl}oxy)-2-fluorophenyl]-1,3-dimethyl-1H-pyrazole-5-carboxamide], the inhibition at 1 µM in experiment [1] is at least 90%. Moreover, the concentration for half-maximal inhibition (IC50) in experiment [2], in experiment [3] and in experiment [4] was at most 500 nM each time.

With `Cc1cc(C(=O)Nc2cccc(Oc3ccc4nc(NC(=O)CN(C)C)cn4n3)c2)n(C)n1` [Example 149, N-[3-({2-[(N,N-dimethylglycyl)amino]imidazo[1,2-b]pyridazin-6-yl}oxy)phenyl]-1,3-dimethyl-1H-pyrazole-5-carboxamide], in experiment [1], the inhibition at 1 µM is at least 90%. For the same compound, the IC50 in experiment [2] and in experiment [4] was at most 500 nM in each case.

For the compound `Cc1cc(C(=O)Nc2cccc(Sc3ccc4nc(NC(=O)C5CC5)cn4n3)c2)n(C)n1` [Example 150, N-[3-({2-[(cyclopropylcarbonyl)amino]imidazo[1,2-b]pyridazin-6-yl}sulfanyl)phenyl]-1,3-dimethyl-1H-pyrazole-5-carboxamide], in experiment [1], the inhibition at 1 µM is at least 90%. Further, the IC50 in experiment [2] and in experiment [4] was at most 500 nM in each case.

Take `CCn1cc(C(=O)Nc2cc(Oc3ccc4nc(NC(=O)C5CC5)cn4n3)ccc2F)c(C)n1` [Example 161, N-[5-({2-[(cyclopropylcarbonyl)amino]imidazo[1,2-b]pyridazin-6-yl}oxy)-2-fluorophenyl]-1-ethyl-3-methyl-1H-pyrazole-4-carboxamide]: the inhibition at 1 µM in experiment [1] is at least 90%. Moreover, the 50% inhibitory concentration (IC50) in experiment [2], in experiment [3] and in experiment [4] was at most 500 nM each time.

Turning to `CCn1cc(C(=O)Nc2cc(Oc3ccc4nc(NC(=O)C5CC5)cn4n3)ccc2Cl)c(C)n1` [Example 254, N-[2-chloro-5-({2-[(cyclopropylcarbonyl)amino]imidazo[1,2-b]pyridazin-6-yl}oxy)phenyl]-1-ethyl-3-methyl-1H-pyrazole-4-carboxamide], the inhibition at 1 µM in experiment [1] is at least 90%. In addition, the IC50 in experiment [2] and in experiment [4] was at most 500 nM throughout.
